What was measured:
[1] = from cited literature (Storlien et al., Brindley et al., Carr et al., Duhault et al., Pestell et al.); cited from earlier work
[2] = tested on: rat âgé; test: Chronic treatment of the aged rat (insulin resistance, hyperinsulinaemia, raised blood pressure): blood pressure; assay type: in vivo
Protocol: 2- Etude du traitement chronique du rat âgé
Au cours du vieillissement, une insulino-résistance apparaît, accompagnée d'une hyperinsulinémie et d'une élévation de la pression artérielle (cf tableau 1 ci-après).
Le traitement par la d-fenfluramine à la dose de 2,5 mg/kg 2 fois par jour pendant 3 semaines, diminue la pression artérielle du rat âgé de 12.10² Pa sans modifier celle du rat jeune.

[3] = tested on: réactivité vasculaire; test: Vascular reactivity after chronic treatment of the aged rat: maximum contraction to serotonin and ADP; assay type: in vivo; conditions: 12-month rats treated with d-fenfluramine
Description: Cet effet est relié à une normalisation de la réactivité vasculaire, en particulier à la sérotonine et à l'ADP (cf tableau 2 ci-après).

## CCNC(C)Cc1cccc(C(F)(F)F)c1 (racemic) [dl fenfluramine]
[1]
  insulino-résistance et hyperinsulinémie basale: capables de réduire l'insulino-résistance et l'hyperinsulinémie basale

## CC(Cc1cccc(C(F)(F)F)c1)NCCOC(=O)c1ccccc1 (centres unmarked) [benfluorex]
[2]; 50 mg/kg, 5 times per day
  Blood pressure and vascular reactivity of the aged rat (results compared with d-fenfluramine): résultats analogues

## CCN[C@@H](C)Cc1cccc(C(F)(F)F)c1 [d-fenfluramine]
[2]; young rat, 2,5 mg/kg twice daily for 3 weeks
  pression artérielle du rat jeune: sans modifier
[3]; expressed relative to KCl = 100 % contraction
  Maximum de contraction Sérotonine: 145%
[3]; expressed relative to phenylephrine = 100 % contraction
  Maximum de contraction ADP: 66%
